For eight molecules, melting point results are on record in US7648997B2, “Hydroxylamine substituted imidazoquinolines” (Coley Pharmaceutical Group, Inc., priority 2003, dated 2010).

By melting point is commonly meant the temperature, or range, at which the solid turns liquid. With `CCCc1nc2c(N)nc3ccccc3c2n1CCCON` [Example 1, 1-[3-(Aminooxy)propyl]-2-propyl-1H-imidazo[4,5-c]quinolin-4-amine], the melting point lay within 145 to 148 °C.

On to `CCCc1nc2c(N)nc3ccccc3c2n1CCCONC(=O)C1CC1` [Example 2, N-[3-(4-Amino-2-propyl-1H-imidazo[4,5-c]quinolin-1-yl)propoxy]cyclopropanecarboxamide], for which the melting point was 103 to 105 °C.

`CCCCc1nc2c(N)nc3ccccc3c2n1CCCCONC(C)C` [Example 72, 2-Butyl-1-{4-[(isopropylamino)oxy]butyl}-1H-imidazo[4,5-c]quinolin-4-amine]: the melting point fell in the range of 115 to 117 °C.

As to `CCCc1nc2c(N)nc(C)c(C)c2n1CCCONC(C)c1ccccc1` (centres unmarked) [Example 129, 6,7-Dimethyl-1-(3-{[(1-phenylethyl)amino]oxy}propyl)-2-propyl-1H-imidazo[4,5-c]pyridin-4-amine], the melting point was in the range of 125 to 127 °C.

Molecule `CCCc1nc2c(N)nc3ccccc3c2n1CCCONC(C)C` [Example 130, 1-{3-[(Isopropylamino)oxy]propyl}-2-propyl-1H-imidazo[4,5-c]quinolin-4-amine] yielded a melting point of 147 to 150 °C.

In turn, `CCCc1nc2c(N)nc3cc(Br)ccc3c2n1CCCONC(=O)C(C)C` [Example 137, N-[3-(4-Amino-7-bromo-2-propyl-1H-imidazo[4,5-c]quinolin-1-yl)propoxy]-2-methylpropanamide] yielded a melting point of 176 to 178 °C.

`CCCc1nc2c(N)nc3cc(-c4ccccc4)ccc3c2n1CCCONC(=O)C(C)C` [Example 138, N-[3-(4-Amino-7-phenyl-2-propyl-1H-imidazo[4,5-c]quinolin-1-yl)propoxy]-2-methylpropanamide]: the melting point lay within 169 to 171 °C.

`CCOCc1nc2c(N)nc3cc(-c4ccccc4)cnc3c2n1CCCONC(C)C` [Example 139, 2-(Ethoxymethyl)-1-{3-[(isopropylamino)oxy]propyl}-7-phenyl-1H-imidazo[4,5-c][1,5]naphthyridin-4-amine] gave a melting point of 142 to 144 °C.
